Results on 4 molecules are retold here after patent US9241487B2, “Pyrimidine derivatives and use thereof as pesticides” (BAYER INTELLECTUAL PROPERTY GMBH, priority 2010, dated 2016).

Holding throughout (type): in vivo
In test [1] the test system is Puccinia triticina. The experiment in a line: Puccinia triticina test (wheat)/protective. The note with it: 192 h, protective spray, evaluation 8 days after inoculation, read-out: Efficacy (%). The method, then:
Puccinia triticina Test (Wheat)/Protective
(§1) Solvent: 49 parts by weight of N,N-dimethylacetamide
(§2) Emulsifier: 1 part by weight of alkylaryl polyglycol ether
To produce a suitable preparation of active compound, 1 part by weight of active compound is mixed with the stated amounts of solvent and emulsifier, and the concentrate is diluted with water to the desired concentration. To test for protective activity, young plants are sprayed with the preparation of active compound at the stated application rate. After the spray coating has dried on, the plants are sprayed with spores with a spore suspension of Puccinia triticina. The plants remain in an incubation cabin at 20° C. and 100% relative atmospheric humidity for 48 hours. The plants are placed in a greenhouse at a temperature of about 20° C. and a relative atmospheric humidity of about 80%. Evaluation follows 8 days after the inoculation. 0% means an efficacy which corresponds to that of the control, whereas an efficacy of 100% means that no infection is observed.
In this test, the following compounds according to the invention show, at an active compound concentration of 500 ppm, an efficacy of 70% or more: […]

Test [2] concerns Pyrenophora teres. As to the kind of experiment: Pyrenophora teres test (barley)/protective. As to conditions: protective spray, evaluation 7-9 days after inoculation. The method, then: Pyrenophora teres Test (Barley)/Protective
as §1, §2
(§3) To produce a suitable preparation of active compound, 1 part by weight of active compound is mixed with the stated amounts of solvent and emulsifier, and the concentrate is diluted with water to the desired concentration. To test for protective activity, young plants are sprayed with the preparation of active compound at the stated application rate. 1 day after this treatment, the plants are inoculated with an aqueous spore suspension of Pyrenophora teres. The plants remain in an incubation cabin at 20° C. and 100% relative atmospheric humidity for 48 hours. The plants are placed in a greenhouse at a temperature of about 20° C. and a relative atmospheric humidity of about 80%. Evaluation is carried out 7-9 days after the inoculation. 0% means an efficacy which corresponds to that of the control, whereas an efficacy of 100% means that no infection is observed.

In test [3] the test system is Phakopsora pachyrhizi. The experiment in a line: Phakopsora pachyrhizi test (soya bean)/protective. The note with it: protective spray, 100 ppm, evaluation 11 days after inoculation. The method, then:
Phakopsora pachyrhizi Test (Soya Bean)/Protective
Solvent: 28.5 parts by weight of acetone
Emulsifier: 1.5 part by weight of polyoxyethylene alkylphenyl ether
as §3, with “spraying,” for “this treatment,”, “the soya bean rust pathogen (Phakopsora pachyrhizi).” for “Pyrenophora teres. The plants remain in an incubation cabin at 20° C. and 100% relative atmospheric humidity for 48 hours.”, “follows 11” for “is carried out 7-9”
In this test, the following compounds according to the invention show, at an active compound concentration of 100 ppm, an efficacy of 80% or more: […]

`CC(C)C(O)(COc1ccc(OC(F)(F)F)cc1)c1cncnc1` (centres unmarked) [Compound 2]: the pest or weed control at 500 ppm in test [1] was 100%. The “Efficacy (%)” value in test [2] (100 ppm) and in test [2] (500 ppm) was 0% throughout.
For the molecule `CC(C)(C)C(O)(COc1ccc(OC(F)(F)F)cc1)c1cncnc1` (centres unmarked) [Compound 12], the “Efficacy (%)” value was 98% in test [3], 60% in test [2] (100 ppm) and 95% in test [2] (500 ppm). Besides, the pest or weed control at 500 ppm in test [1] came to 100%.
On to `CC(C)(C)C(O)(COc1ccc(SC(F)(F)F)cc1)c1cncnc1` (centres unmarked) [Compound 17], for which the “Efficacy (%)” value in test [3] worked out at 97%. The pest or weed control at 500 ppm in test [1] is 100%.
With `CC1(C(O)(COc2ccc(OC(F)(F)F)cc2)c2cncnc2)CC1` (centres unmarked) [Compound 18], the “Efficacy (%)” value in test [3] amounted to 98%. Besides, in test [1], the pest or weed control at 500 ppm was found to be 100%.
